Laboratory results reported in PMC9737391, “Trifluoromethylcinnamanilide Michael Acceptors for Treatment of Resistant Bacterial Infections” (International Journal of Molecular Sciences, 2022).
pIC50: −log10 of the molar value. In brackets after ≈: the same amount, converted by molar mass. Several values for one entry are separate records, joined by “and”; a condition that tells them apart may be missing. Equal entries are not always repeated.

Tests used:
[1] = Lipophilicity determination by RP-HPLC; type: physicochemical; settings: RP-HPLC, logarithm of capacity factor k
Procedure: It is evident from the graphs in Figure 1 that the correlation coefficients of the dependences of log k/log D6.5/log D7.4 have a value of r = 0.999 (n = 32), which means that the investigated compounds behave insignificantly differently in aqueous media with different pH. Moreover, lipophilicity was calculated as log P and Clog P using two prediction programs. […] Therefore, only log P values predicted by ACD/Percepta can be used for correlations with experimental values. These matches are shown in the graphs in Figure 2, and according to the correlation coefficient r~0.940 (n = 32), it can be argued that even the predicted lipophilicity values correlate with the experimentally measured ones. However, the largest variations were observed (no difference for series 1, 2) for compounds substituted with 2-Cl, 2-CF3, 2,5-Cl, 4-F, 4-CF3, and 3,5-F, 3,5-Cl. These are mainly substituents capable of forming hydrogen and other types of non-bonding interactions both with the surrounding environment and within the molecule. Overall, series 1 (3-CF3) is less lipophilic than series 2 (4-CF3), but the differences in the experimental data are insignificant. Unsubstituted derivatives 1a/2a are the least lipophilic compounds, while derivatives 1o/2o (3,5-Cl) and 1p/2p (3,5-CF3) are the most lipophilic compounds.
Experimental determination of lipophilicity values (log k, log D6.5, and log D7.4) was performed under the same conditions and on the same device as described by Strharsky et al..

[2] = tested on: Staphylococcus aureus ATCC 29213; experiment: MIC, microtitration broth method; type: cell-based; settings: ATCC29213, S. aureus ATCC 29213
[3] = tested on: methicillin-resistant S. aureus SA 3202 (MRSA1); experiment: MIC, microtitration broth method; type: cell-based; settings: Staphylococcus aureus; MRSA SA 3202
[4] = tested on: methicillin-resistant S. aureus SA 630 (MRSA2); experiment: MIC, microtitration broth method; type: cell-based; settings: Staphylococcus aureus; MRSA SA 630
[5] = tested on: methicillin-resistant S. aureus 63718 (MRSA3); experiment: MIC, microtitration broth method; type: cell-based; settings: Staphylococcus aureus; MRSA 63718
[6] = tested on: Enterococcus faecalis ATCC 29212; experiment: MIC, microtitration broth method; type: cell-based; settings: ATCC29212, E. faecalis reference strain
[7] = tested on: vancomycin-resistant E. faecalis VRE 342B (VRE1); experiment: MIC, microtitration broth method; type: cell-based, Enterococcus faecalis
[8] = tested on: vancomycin-resistant E. faecalis VRE 368 (VRE2); experiment: MIC, microtitration broth method; type: cell-based, Enterococcus faecalis
[9] = tested on: vancomycin-resistant E. faecalis VRE 725B (VRE3); experiment: MIC, microtitration broth method; type: cell-based, Enterococcus faecalis
M. smegmatis ATCC 700084 = experiment: In vitro antimycobacterial evaluation (MIC); type: cell-based, Mycobacterium smegmatis
[10] = tested on: Staphylococcus aureus ATCC 29213; experiment: MBC, agar aliquot subculture method; type: cell-based; settings: ATCC29213, S. aureus ATCC 29213
[11] = tested on: methicillin-resistant S. aureus SA 3202 (MRSA1); experiment: MBC, agar aliquot subculture method; type: cell-based; settings: Staphylococcus aureus; MRSA SA 3202
[12] = tested on: methicillin-resistant S. aureus SA 630 (MRSA2); experiment: MBC, agar aliquot subculture method; type: cell-based; settings: Staphylococcus aureus; MRSA SA 630
[13] = tested on: methicillin-resistant S. aureus 63718 (MRSA3); experiment: MBC, agar aliquot subculture method; type: cell-based; settings: Staphylococcus aureus; MRSA 63718
[14] = tested on: Enterococcus faecalis ATCC 29212; experiment: MBC, agar aliquot subculture method; type: cell-based; settings: ATCC29212, E. faecalis reference strain
[15] = tested on: vancomycin-resistant E. faecalis VRE 342B (VRE1); experiment: MBC, agar aliquot subculture method; type: cell-based, Enterococcus faecalis
[16] = tested on: vancomycin-resistant E. faecalis VRE 368 (VRE2); experiment: MBC, agar aliquot subculture method; type: cell-based, Enterococcus faecalis
[17] = tested on: vancomycin-resistant E. faecalis VRE 725B (VRE3); experiment: MBC, agar aliquot subculture method; type: cell-based, Enterococcus faecalis
[18] = tested on: human monocytic leukemia cell line THP-1; experiment: In vitro cell viability (cytotoxicity screening); type: cell-based; settings: 24 h, medium with 10% FBS, ± SD, n = 6
Procedure: The investigated anilides can be divided into three groups. […] Higher concentrations (than 10 or 30 µM) were not possible to evaluate due to precipitation of the tested compounds in water medium. Based on all these observations, it can be concluded that the high antimicrobial activity of 3,5-CF3-substituted compounds is associated with significant cytotoxic effect against eukaryotic cells. On the other hand, the other still effective compounds, especially agents 1j and 1o, have an insignificant toxic effect, which makes them interesting for further study.
Human monocytic leukemia THP-1 cells obtained from the European Collection of Cell Cultures (ECACC, Salisbury, UK) were used for in vitro antiproliferative assays. A recently described procedure was used.

S. aureus ATCC 29213 = experiment: MTT assay, inhibition of bacterial respiration; type: cell-based, Staphylococcus aureus
Excerpt: The MTT assay can be used to assess cell growth by measuring respiration. Respiratory activity of bacterial cells (which is finally reflected in their viability) less than 70% after exposure to the MIC values for each tested compound is considered as a positive result of this assay. This low level of cell oxidative metabolism indicates inhibition of cell growth by inhibition of respiration. The lowest multiples of MIC values that achieved more than 70% inhibition of S. aureus ATCC 29213 viability (%) are shown in Table 3.
The percent inhibition of respiration of S. aureus ATCC 29213 was determined through the MTT assay. The assay was performed as described recently. The percent viability is calculated through the comparison of a measured value and that of the uninhibited control: % viability = OD570E/OD570P × 100, where OD570E is the reading from the compound-exposed cells, while OD570P is the reading from the uninhibited cells (positive control). Cytotoxic potential is determined by a percent viability of <70% [46, 47].

S. aureus/MRSA = experiment: Antistaphylococcal activity, summary over strains; type: cell-based, Staphylococcus aureus
E. faecalis/VRE = experiment: Anti-enterococcal activity, summary over strains; type: cell-based, Enterococcus faecalis
M. tuberculosis H37Ra = tested on: M. tuberculosis H37Ra; design: method as in ref 26 = [26]; PMID 30087309; doi:10.3390/ijms19082318; 26. Pospisilova S. Kos J. Michnova H. Kapustikova I. Strharsky T. Oravec M. Moricz A.M. Bakonyi J. Kauerova T. Kollar P. Synthesis and spectrum of biological activities of novel N -arylcinnamamides In; settings: average over the named compounds; cited from earlier work
[19] = tested on: Mycobacterium marinum CAMP 5644; experiment: In vitro antimycobacterial evaluation (MIC); type: cell-based; settings: Mycobacterium marinum, CAMP5644, M. marinum CAMP 5644

Row | SMILES | MIC [2] [µM] | MIC [3] [µM] | MIC [4] [µM] | MIC [5] [µM] | MIC [6] [µM] | MIC [7] [µM] | MIC [8] [µM] | MIC [9] [µM] | MBC [10] [µM] | MBC [11] [µM] | MBC [12] [µM] | MBC [13] [µM] | MBC [14] [µM] | MBC [15] [µM] | MBC [16] [µM] | MBC [17] [µM] | Conc.: lowest multiple of MIC with at least 70% inhibition of respiratory activity (S. aureus ATCC 29213) | Conc.: the same concentration as multiple of MBC (S. aureus ATCC 29213) | further results
1 | O=C(/C=C/c1ccc(C(F)(F)F)cc1)Nc1cccc(C(F)(F)F)c1 [2i, (2E)-N-[3-(Trifluoromethyl)phenyl]-3-[4-(trifluoromethyl)phenyl]prop-2-enamide] | 1.39 (≈ 0.499 µg/mL) | 2.78 (≈ 0.999 µg/mL) | 1.39 (≈ 0.499 µg/mL) | 2.78 (≈ 0.999 µg/mL) | 11.1 (≈ 3.99 µg/mL) | 11.1 (≈ 3.99 µg/mL) | 11.1 (≈ 3.99 µg/mL) | 11.1 (≈ 3.99 µg/mL) | 1.39 (≈ 0.499 µg/mL) | 2.78 (≈ 0.999 µg/mL) | 1.39 (≈ 0.499 µg/mL) | 2.78 (≈ 0.999 µg/mL) | 11.1 (≈ 3.99 µg/mL) | 22.3 (≈ 8.01 µg/mL) | 44.5 (≈ 16 µg/mL) | 11.1 (≈ 3.99 µg/mL) | 1× MIC (1× MBC) | 1× MIC (1× MBC) | log k [1]: 0.8867; MIC MS (M. smegmatis ATCC 700084): no effect; pIC50 [18]: < 5.00; MIC (S. aureus/MRSA; Staphylococcus aureus, MRSA, average over the named compounds and strains, read-out: average MIC against S. aureus/MRSA): ~1.4 µM (≈ 0.503 µg/mL); antistaphylococcal MICs/MBCs (S. aureus/MRSA; range over S. aureus and MRSA isolates and over the named compounds): 0.15 to 5.57 µM and 0.146 to 5.57 µM; MIC (E. faecalis/VRE; Enterococcus faecalis, VRE, average over the named compounds and strains, read-out: average MIC against E. faecalis/VRE): ~15 µM (≈ 5.39 µg/mL); anti-enterococcal MICs/MBCs (E. faecalis/VRE; range over E. faecalis and VRE isolates and over the named compounds): 2.34 to 44.5 µM; melting point: 134 to 136 °C
2 | O=C(/C=C/c1ccccc1)Nc1ccc(Cl)c(Cl)c1 [3e] |  |  |  |  |  |  |  |  |  |  |  |  |  |  |  |  |  |  | average MIC against M. tuberculosis H37Ra (M. tuberculosis H37Ra): ~ 24 µM
3 | CC1(C)S[C@@H]2[C@H](NC(=O)[C@H](N)c3ccccc3)C(=O)N2[C@H]1C(=O)O [AMP, ampicillin, reference compound] | 5.72 (≈ 2 µg/mL) | 45.8 (≈ 16 µg/mL) | 45.8 (≈ 16 µg/mL) | 45.8 (≈ 16 µg/mL) | 2.81 (≈ 0.982 µg/mL) | 11.5 (≈ 4.02 µg/mL) | 11.5 (≈ 4.02 µg/mL) | 11.5 (≈ 4.02 µg/mL) | > 5.72 | > 45.8 | > 45.8 | > 45.8 | 2.81 (≈ 0.982 µg/mL) | 11.5 (≈ 4.02 µg/mL) | 11.5 (≈ 4.02 µg/mL) | 11.5 (≈ 4.02 µg/mL) | 8× MIC (>8× MBC) | 8× MIC (>8× MBC) | 
4 | NNC(=O)c1ccncc1 [INH, isoniazid, reference compound] |  |  |  |  |  |  |  |  |  |  |  |  |  |  |  |  |  |  | MIC [19]: 36.6 µM (≈ 5.02 µg/mL); MIC (M. smegmatis ATCC 700084; Mycolicibacterium smegmatis, ATCC700084): 117 µM (≈ 16 µg/mL)
